# According to patent US8349883B2, “Hydroxamate-based inhibitors of deacetylases B” (Novartis AG, priority 2008, dated 2013):
# Legend:
# HDAC-1 = target: T1, HDAC-1 (Homo sapiens, UniProt Q13547); assay: HDAC inhibition assay (purified GST-HDAC protein); type: biochemical
# T1 construct: made in house; host or cells: Sf9 or Sf21 insect cells (baculovirus, donor vector pFB-GSTX3)
# HCT116 = HCT116 IC50; type: cell-based; conditions: Homo sapiens, HCT-116
# T1 sequence (Q13547 whole entry, species assumed): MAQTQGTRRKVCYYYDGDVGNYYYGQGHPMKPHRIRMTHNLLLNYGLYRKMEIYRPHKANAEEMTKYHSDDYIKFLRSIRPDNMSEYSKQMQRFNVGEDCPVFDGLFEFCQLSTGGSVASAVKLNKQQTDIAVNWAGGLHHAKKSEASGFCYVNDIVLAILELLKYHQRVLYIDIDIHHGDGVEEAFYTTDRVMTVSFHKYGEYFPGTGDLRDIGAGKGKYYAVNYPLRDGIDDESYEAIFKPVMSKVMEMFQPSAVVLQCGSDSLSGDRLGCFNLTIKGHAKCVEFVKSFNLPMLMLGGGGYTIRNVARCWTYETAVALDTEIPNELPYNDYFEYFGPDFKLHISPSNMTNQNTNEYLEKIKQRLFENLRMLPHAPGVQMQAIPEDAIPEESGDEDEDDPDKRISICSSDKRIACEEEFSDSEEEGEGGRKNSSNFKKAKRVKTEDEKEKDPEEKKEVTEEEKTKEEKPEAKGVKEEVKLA
Compound,IC50 (HDAC-1),IC50 (HCT116)
"O=C(/C=C/c1ccc([C@@H]2CCCN2CCc2cn(CCOCc3ccccc3)nn2)cc1)NO [Compound 76, (E)-3-[4-((S)-1-{2-[1-(2-Benzyloxy-ethyl)-1H-[1,2,3]triazol-4-yl]-ethyl}-pyrrolidin-2-yl)-phenyl]N-hydroxy-acrylamide]",0.031 µM,0.21 µM
"CC(C)(C)n1nnc(CCN2CCC[C@H]2c2ccc(/C=C/C(=O)NO)cc2)n1 [Compound 104, (E)-3-(4-{(S)-1-[2-(2-tert-Butyl-2H-tetrazol-5-yl)-ethyl]-pyrrolidin-2-yl}-phenyl)-N-hydroxy-acrylamide]",0.042 µM,0.36 µM
"Cn1cc(CCN2CCC[C@H]2c2ccc(/C=C/C(=O)NO)cc2)cn1 [Compound 59, (E)-N-Hydroxy-3-(4-{(S)-1-[2-(1-methyl-1H-pyrazol-4-yl)-ethyl]-pyrrolidin-2-yl}-phenyl)-acrylamide]",0.008 µM,0.035 µM
"O=C(/C=C/c1ccc([C@@H]2CCCCCN2CCc2cnn3ccccc23)cc1)NO [Compound 86, (E)-N-Hydroxy-3-{4-[(S)-1-(2-pyrazolo[1,5-a]pyridin-3-yl-ethyl)-azepan-2-yl]-phenyl}-acrylamide]",0.01 µM,0.042 µM
"Cc1nn(CCN2CCC[C@H]2c2ccc(/C=C/C(=O)NO)cc2)c(C)c1Br [Compound 69, (E)-3-(4-{(S)-1-[2-(4-Bromo-3,5-dimethyl-pyrazol-1-yl)-ethyl]-pyrrolidin-2-yl}-phenyl)-N-hydroxy-acrylamide]",0.025 µM,0.17 µM
"Cc1[nH]c2ccccc2c1CCN1CCNCC1c1ccc(/C=C/C(=O)NO)cc1 (centres unmarked) [Compound 89, (E)-N-Hydroxy-3-(4-{1-[2-(2-methyl-1H-indol-3-yl)-ethyl]-piperazin-2-yl}-phenyl)-acrylamide]",0.007 µM,0.2 µM
"Cc1nn(C)c(C)c1CCN1CCC[C@@H]1c1ccc(/C=C/C(=O)NO)cc1 [Compound 110, (E)-N-Hydroxy-3-(4-{(R)-1-[2-(1,3,5-trimethyl-1H-pyrazol-4-yl)-ethyl]-pyrrolidin-2-yl}-phenyl)-acrylamide]",0.1 µM,0.18 µM
"O=C(/C=C/c1ccc([C@@H]2CCCN2CCc2nnnn2-c2ccc([N+](=O)[O-])cc2)cc1)NO [Compound 107, (E)-N-Hydroxy-3-[4-((S)-1-{2-[1-(4-nitro-phenyl)-1H-tetrazol-5-yl]-ethyl}-pyrrolidin-2-yl)-phenyl]-acrylamide]",0.17 µM,0.54 µM
"CC(C)(C)c1[nH]nnc1CCN1CCC[C@H]1c1ccc(/C=C/C(=O)NO)cc1 [Compound 108, (E)-3-(4-{(S)-1-[2-(5-tert-Butyl-1H-[1,2,3]triazol-4-yl)-ethyl]-pyrrolidin-2-yl}-phenyl)-N-hydroxy-acrylamide]",0.007 µM,0.01 µM
"O=C(/C=C/c1ccc([C@@H]2CCCN2CCc2ccc(F)cc2)cc1)NO [Compound 21, (E)-3-(4-{(S)-1-[2-(4-Fluoro-phenyl)-ethyl]-pyrrolidin-2-yl}-phenyl)-N-hydroxy-acrylamide]",0.008 µM,0.021 µM
"O=C(/C=C/c1ccc([C@@H]2CCCN2CCS(=O)(=O)c2ccccc2)cc1)NO [Compound 98, (E)-3-{4-[(S)-1-(2-Benzenesulfonyl-ethyl)-pyrrolidin-2-yl]-phenyl}-N-hydroxy-acrylamide]",0.036 µM,0.05 µM
"O=C(/C=C/c1ccc(C2CCCN2CCc2ccccn2)cc1)NO (centres unmarked) [Compound 34, (E)-N-Hydroxy-3-{4-[1-(2-pyridin-2-yl-ethyl)-pyrrolidin-2-yl]-phenyl}-acrylamide]",0.021 µM,0.077 µM
"Cc1ccnn1CCN1CCC[C@H]1c1ccc(/C=C/C(=O)NO)cc1 [Compound 72, (E)-N-Hydroxy-3-(4-{(S)-1-[2-(5-methyl-pyrazol-1-yl)-ethyl]-pyrrolidin-2-yl}-phenyl)-acrylamide]",0.019 µM,0.031 µM
"O=C(/C=C/c1ccc([C@@H]2CCCN2CCC2CCCCC2)cc1)NO [Compound 41, (E)-3-{4-[(S)-1-(2-Cyclohexyl-ethyl)-pyrrolidin-2-yl]-phenyl}-N-hydroxy-acrylamide]",0.007 µM,0.048 µM
"Cn1nnc(CCN2CCC[C@H]2c2ccc(/C=C/C(=O)NO)cc2)n1 [Compound 81, (E)-N-Hydroxy-3-(4-{(S)-1-[2-(2-methyl-2H-tetrazol-5-yl)-ethyl]-pyrrolidin-2-yl}-phenyl)-acrylamide]",0.067 µM,0.23 µM
"Cc1cc(C)n(CCN2CCC[C@H]2c2ccc(/C=C/C(=O)NO)cc2)n1 [Compound 66, (E)-3-(4-{(S)-1-[2-(3,5-Dimethyl-pyrazol-1-yl)-ethyl]-pyrrolidin-2-yl}-phenyl)-N-hydroxy-acrylamide]",0.028 µM,0.061 µM
"O=C(/C=C/c1ccc([C@@H]2CCCN2CCc2nnn(-c3ccc([N+](=O)[O-])cc3)n2)cc1)NO [Compound 106, (E)-N-Hydroxy-3-[4-((S)-1-{2-[2-(4-nitro-phenyl)-2H-tetrazol-5-yl]-ethyl}-pyrrolidin-2-yl)-phenyl]-acrylamide]",0.067 µM,0.18 µM
"COc1ccc2[nH]c(C)c(CCN3CCCC3c3ccc(/C=C/C(=O)NO)cc3)c2c1 (centres unmarked) [Compound 6, (E)-N-Hydroxy-3-(4-{1-[2-(5-methoxy-2-methyl-1H-indol-3-yl)-ethyl]-pyrrolidin-2-yl}-phenyl)-acrylamide]",0.002 µM,0.0012 µM
"O=C(/C=C/c1ccc([C@@H]2CCCN2CCc2cn(Cc3ccccc3)nn2)cc1)NO [Compound 78, (E)-3-(4-{(S)-1-[2-(1-Benzyl-1H-[1,2,3]triazol-4-yl)-ethyl]-pyrrolidin-2-yl}-phenyl)-N-hydroxy-acrylamide]",0.022 µM,0.12 µM

# Continued, values first:
IC50 (HDAC-1),IC50 (HCT116),Compound
0.003 µM,0.003 µM,"O=C(/C=C/c1ccc([C@@H]2CCCN2CCc2c(-c3cnccn3)nn3ccccc23)cc1)NO [Compound 49, (E)-N-Hydroxy-3-(4-{(S)-1-[2-(2-pyrazin-2-yl-pyrazolo[1,5-a]pyridin-3-yl)-ethyl]-pyrrolidin-2-yl}-phenyl)-acrylamide]"
0.002 µM,0.002 µM,"Cc1nn(CC2CC2)c(C)c1CCN1CCC[C@H]1c1ccc(/C=C/C(=O)NO)cc1 [Compound 62, (E)-3-(4-{(S)-1-[2-(1-Cyclopropylmethyl-3,5-dimethyl-1H-pyrazol-4-yl)-ethyl]-pyrrolidin-2-yl}-phenyl)-N-hydroxy-acrylamide]"
0.006 µM,0.01 µM,"O=C(/C=C/c1ccc(C2CCCN2CCn2ccc3ccccc32)cc1)NO (centres unmarked) [Compound 5, (E)-N-Hydroxy-3-{4-[1-(2-indol-1-yl-ethyl)-pyrrolidin-2-yl]-phenyl}-acrylamide]"
0.004 µM,0.096 µM,"Cc1[nH]c2ccccc2c1CC(=O)N1CCCC1c1ccc(/C=C/C(=O)NO)cc1 (centres unmarked) [Compound 12, (E)-N-Hydroxy-3-(4-{1-[2-(2-methyl-1H-indol-3-yl)-acetyl]-pyrrolidin-2-yl}-phenyl)-acrylamide]"
0.005 µM,0.009 µM,"O=C(/C=C/c1ccc([C@@H]2CCCN2CCc2ccsc2)cc1)NO [Compound 35, (E)-N-Hydroxy-3-{4-[(S)-1-(2-thiophen-3-yl-ethyl)-pyrrolidin-2-yl]-phenyl}-acrylamide]"
0.003 µM,0.011 µM,"O=C(/C=C/c1ccc(C2CCCN2CCc2ccc(O)cc2)cc1)NO (centres unmarked) [Compound 20, (E)-N-Hydroxy-3-(4-{1-[2-(4-hydroxy-phenyl)-ethyl]-pyrrolidin-2-yl}-phenyl)-acrylamide]"
0.005 µM,0.039 µM,"O=C(/C=C/c1ccc(C2CCCN2CCCc2ccccc2)cc1)NO (centres unmarked) [Compound 33, (E)-N-Hydroxy-3-{4-[1-(3-phenyl-propyl)-pyrrolidin-2-yl]-phenyl}-acrylamide]"
0.0024 µM,0.008 µM,"Cc1nn2ccccc2c1CCN1CCC[C@@H]1c1ccc(/C=C/C(=O)NO)cc1 [Compound 45, (E)-N-Hydroxy-3-(4-{(R)-1-[2-(2-methyl-pyrazolo[1,5-a]pyridin-3-yl)-ethyl]-pyrrolidin-2-yl}-phenyl)-acrylamide]"
0.003 µM,0.007 µM,"O=C(/C=C/c1ccc(C2CCCN2CCc2ccccc2)cc1)NO (centres unmarked) [Compound 19, (E)-N-Hydroxy-3-[4-(1-phenethyl-pyrrolidin-2-yl)-phenyl]-acrylamide]"
0.006 µM,0.043 µM,"Nc1ccc(-n2cc(CCN3CCC[C@H]3c3ccc(/C=C/C(=O)NO)cc3)nn2)cc1 [Compound 79, (E)-3-[4-((S)-1-{2-[1-(4-Amino-phenyl)-1H-[1,2,3]triazol-4-yl]-ethyl}-pyrrolidin-2-yl)-phenyl]-N-hydroxy-acrylamide]"
0.0014 µM,0.001 µM,"Cc1oc(-c2ccccc2)nc1CCN1CCC[C@H]1c1ccc(/C=C/C(=O)NO)cc1 [Compound 57, (E)-N-Hydroxy-3-(4-{(S)-1-[2-(5-methyl-2-phenyl-oxazol-4-yl)-ethyl]-pyrrolidin-2-yl}-phenyl)-acrylamide]"
0.005 µM,0.067 µM,"O=C(/C=C/c1ccc(C2CCCN2CC(O)c2ccc(Cl)cc2)cc1)NO (centres unmarked) [Compound 31, (E)-3-(4-{1-[2-(4-Chloro-phenyl)-2-hydroxy-ethyl]-pyrrolidin-2-yl}-phenyl)-N-hydroxy-acrylamide]"
0.0027 µM,0.0043 µM,"CC(C)(C)c1[nH]c2ncccc2c1CCN1CCC[C@H]1c1ccc(/C=C/C(=O)NO)cc1 [Compound 52, (E)-3-(4-{(S)-1-[2-(2-tert-Butyl-1H-pyrrolo[2,3-b]pyridin-3-yl)-ethyl]-pyrrolidin-2-yl}-phenyl)-N-hydroxy-acrylamide]"
0.005 µM,0.007 µM,"O=C(/C=C/c1ccc(C2CCCN2CCc2ccccc2Cl)cc1)NO (centres unmarked) [Compound 25, (E)-3-(4-{1-[2-(2-Chloro-phenyl)-ethyl]-pyrrolidin-2-yl}-phenyl)-N-hydroxy-acrylamide]"
0.001 µM,0.00035 µM,"CCc1nn2ccccc2c1CCN1CCC[C@H]1c1ccc(/C=C/C(=O)NO)cc1 [Compound 47, (E)-3-(4-{(S)-1-[2-(2-Ethyl-pyrazolo[1,5-a]pyridin-3-yl)-ethyl]-pyrrolidin-2-yl}-phenyl)-N-hydroxy-acrylamide]"
